Patent US20210221848A1, “POLYMYXIN DERIVATIVES AND THEIR USE IN COMBINATION THERAPY TOGETHER WITH DIFFERENT ANTIBIOTICS” (priority 2014, published 2021)
Values after ≈ are worked out from the molar mass of the structure shown. Where two headings read alike, the source gives them in different places. Bridge positions count the residues as written; N and C are the ends. Square brackets hold non-standard residues; d marks the D form. Peptide text beside a SMILES is read from it. * marks the point of attachment. aThr = C[C@H](O)[C@H](N)C(=O)O; X2 = CC(C)CN1CCNC[C@H]1C(=O)*; Dab = NCC[C@H](N)C(=O)O

Tests used:
P. aeruginosa [1] = settings: absence of a second agent, Table 6B
K. pneumoniae [2] = settings: for MIC, K. pneumoniae ATCC 4352 / MIC, K. pneumoniae ATCC BAA-2146: absence of a second agent, Table 6B
[3] = system: E. coli strains with elevated MICs to Polymyxin B; test: MIC against strains with elevated MICs to Polymyxin B; format: cell-based, Escherichia coli; settings: Table 6D; for MIC E. coli 058: strain 058, elevated MIC to Polymyxin B; for MIC E. coli 059: strain 059, elevated MIC to Polymyxin B; for MIC E. coli 060: strain 060, elevated MIC to Polymyxin B; for MIC E. coli 061: strain 061, elevated MIC to Polymyxin B
Summary of the method: (§1)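 Polymyxin B-resistant isolates were inoculated from 0.5 McFarland suspensions of 18-24 hour Mueller-Hinton agar colonies. Testing was done twice per compound, and results disagreeing by over 2-fold were discarded as non-valid. For compounds assayed several times, the modal MIC is given.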

A. baumannii [4] = settings: absence of a second agent, Table 6B
E. coli [5] = settings: absence of a second agent, Table 6B
[6] = system: A. baumanii strains with elevated MICs to Polymyxin B; test: MIC against strains with elevated MICs to Polymyxin B; format: cell-based, Acinetobacter baumannii; settings: Table 6D; for MIC A. baumannii 053: strain 053, elevated MIC to Polymyxin B; for MIC A. baumannii 056: strain 056, elevated MIC to Polymyxin B; for MIC A. baumannii 068: strain 068, elevated MIC to Polymyxin B; for MIC A. baumannii 070: strain 070, elevated MIC to Polymyxin B
Summary of the method: as §1

[7] = system: P. aeruginosa strains with elevated MICs to Polymyxin B; test: as above; format: cell-based, Pseudomonas aeruginosa; settings: Table 6D; for MIC P. aeruginosa 065: strain 065, elevated MIC to Polymyxin B; for MIC P. aeruginosa 066: strain 066, elevated MIC to Polymyxin B; for MIC P. aeruginosa 067: strain 067, elevated MIC to Polymyxin B
Summary of the method: as §1

[8] = system: K. pneumoniae strains with elevated MICs to Polymyxin B; test: as above; format: cell-based, Klebsiella pneumoniae; settings: Table 6D; for MIC K. pneumoniae 062: strain 062, elevated MIC to Polymyxin B; for MIC K. pneumoniae 063: strain 063, elevated MIC to Polymyxin B; for MIC K. pneumoniae 064: strain 064, elevated MIC to Polymyxin B; for MIC K. pneumoniae 655: strain 655, elevated MIC to Polymyxin B
Summary of the method: as §1

[9] = system: Pseudomonas aeruginosa ATCC 27853; format: in vivo
Experimental: Groups of 7 male neutropenic specific-pathogen-free CD-1 mice weighing 21.5-27.5 g were used. On Day 0, animals were infected with 0.04 mL inoculum by intranasal instillation into mouse nostrils and were kept in an upright position on a string rack for ˜10 min post-infection. […] At 2 h, the CFU count was determined from 3 mice and the remaining mice (7 per test compound groups) were treated with a subcutaneous injection of the drug at +2, 6 and 10 hr post-infection. Test compounds and the comparator polymyxin B were administered at four concentrations (2.6, 8.6, 17.2 and 25.8 mg/kg free base). The vehicle control group (7 mice) was treated with 0.9% saline for injection at 2, 6 and 10 h post-infection.
Sixteen hours after infection, the mice were euthanized humanely. The lungs of each animal were harvested, homogenized and quantitatively cultured onto CLED agar for CFU determination. Decrease of the total CFU compared to control counts at 16 h post-infection was determined for each dose group.
The in vivo efficacy of 4 compounds of the invention (D25, D36, D42 and D50) was evaluated in a mouse lung infection model of P. aeruginosa ATCC 27853. The model was setup as described above with the exception that groups of up to 8 mice were inoculated through intranasal instillation of ˜2.5×10^6 CFUs of P. aeruginosa isolate ATCC 27853 (1.0×10^5 CFU/lung). Test compounds were administered at two concentrations (equivalent to 4.3 and 17.2 mg/kg free base). Three dose levels of polymyxin B sulfate were used as comparator (equivalent to 4.3, 8.6 and 17.2 mg/kg free base).

HK-2 cell line = test: In vitro renal cell toxicity assay (resazurin reduction)
Experimental: MICs were determined as described herein. HK-2 cell IC50 values were determined as described herein. Values are reported relative to Polymyxin B.

E. coli [10] = test: MIC in 1:1 (wt:wt) combination with Rifampicin; format: cell-based, Escherichia coli; settings: 1:1 (wt:wt) with Rifampicin, total drug concentration
Experimental: (§2) The inoculum was prepared by making a direct suspension of isolated colonies (selected from an 18-24 hour Mueller-Hinton agar plate) adjusted to the 0.5 McFarland standard. […] The assays were performed in duplicate. […] In cases where the duplicate values varied by less than 2-fold, the lower of the two values is reported. If a variation of greater than 2-fold was observed, the assay was considered non-valid. Several of the compounds were subjected to multiple tests, and where this is the case, the MIC reflects the modal value obtained.
(§3) MIC values (microgram/mL) refer to the total drug concentration (i.e. test agent plus Rifampicin).

[11] = system: Acinetobacter baumannii NCTC 13301; settings: mouse thigh, 16 h model
P. aeruginosa [12] = test: MIC in 1:1 (wt:wt) combination with Rifampicin; format: cell-based, Pseudomonas aeruginosa; settings: 1:1 (wt:wt) with Rifampicin, total drug concentration
Experimental: as §2, §3

A. baumannii [13] = test: MIC in 1:1 (wt:wt) combination with Rifampicin; format: cell-based, Acinetobacter baumannii; settings: A. baumannii 053; 1:1 (wt:wt) with Rifampicin; total drug concentration
Experimental: as §2, §3

K. pneumoniae [14] = test: MIC in 1:1 (wt:wt) combination with Rifampicin; format: cell-based, Klebsiella pneumoniae; settings: 1:1 (wt:wt) with Rifampicin, total drug concentration
Experimental: as §2, §3

[15] = mouse lungs, P. aeruginosa ATCC 27853, SC at 2, 6 and 10 h post-infection, 16 h infection model, 17.2 mg/kg/dose free base

Row | Compound | MIC, P. aeruginosa ATCC 27853 (P. aeruginosa [1]) [micrograms/mL] | MIC, P. aeruginosa CCUG 59347 (P. aeruginosa [1]) [micrograms/mL] | MIC, K. pneumoniae ATCC 4352 (K. pneumoniae [2]) [micrograms/mL] | MIC, K. pneumoniae ATCC BAA-2146 (K. pneumoniae [2]) [micrograms/mL] | MIC E. coli 058 [3] [micrograms/mL] | MIC E. coli 059 [3] [micrograms/mL] | MIC E. coli 060 [3] [micrograms/mL] | MIC E. coli 061 [3] [micrograms/mL] | MIC, A. baumannii ATCC BAA-747 (A. baumannii [4]) [micrograms/mL] | MIC, A. baumannii NCTC 13424 (A. baumannii [4]) [micrograms/mL] | MIC, E. coli ATCC 25922 (E. coli [5]) [micrograms/mL] | MIC, E. coli NCTC 13441 (E. coli [5]) [micrograms/mL] | MIC A. baumannii 053 [6] [micrograms/mL] | MIC A. baumannii 056 [6] [micrograms/mL] | MIC A. baumannii 068 [6] [micrograms/mL] | MIC A. baumannii 070 [6] [micrograms/mL] | MIC P. aeruginosa 065 [7] [micrograms/mL] | MIC P. aeruginosa 066 [7] [micrograms/mL] | MIC P. aeruginosa 067 [7] [micrograms/mL] | MIC K. pneumoniae 062 [8] [micrograms/mL] | also measured
1 | 3(S)-3-aminomethyl-5- methyl hexanoyl L- Thr-L-Dap-polymyxin B heptapeptide [Example D42] | 0.25 | 0.5 | 0.125 | 0.5 | 8 | 16 | 16 | 32 | 0.25 | 0.5 | 0.25 | 0.25 | >256 | 256 | 16 | 128 | 4 | 32 | >256 | >256 | MIC K. pneumoniae 063 [8]: 64 micrograms/mL; MIC K. pneumoniae 064 [8]: 16 micrograms/mL; MIC K. pneumoniae 655 [8]: 64 micrograms/mL; Mean log10 CFU reduction vs. control [9, 15]: 5.34 log10 CFU
2 | CC(C)C[C@@H]1NC(=O)[C@@H](Cc2ccccc2)NC(=O)[C@H](CCN)NC(=O)[C@@H](NC(=O)[C@H](CCN)NC(=O)[C@@H](NC(=O)[C@@H]2CNCCN2CC(C)C)[C@H](C)O)CCNC(=O)[C@H]([C@@H](C)O)NC(=O)[C@H](CCN)NC(=O)[C@H](CCN)NC1=O [Example D36, (S)-1-(2-methylpropyl)-piperazine-2-carbonyl polymyxin B nonapeptide] (X2-[aThr][Dab][Dab][Dab][dF]L[Dab][Dab]T; lactam 3-C) | – | – | – | – | – | – | – | – | – | – | – | – | – | – | – | – | – | – | – | – | MIC (K. pneumoniae [2]): 0.25 µg/mL (≈ 0.221 µM); HK-2 IC50 rel to PMB (HK-2 cell line): 4.5; Mean log10 CFU reduction vs. control ([9]; ATCC 27853, in vivo, sc, 17.2 mg/kg, 10 h): 5.30 log10 CFU
3 | (trans-5-(2- methylpropyl) piperidine)-3-carbonyl polymyxin B nonapeptide [Example D50] | 0.5 | 1 | 0.06 | 0.125 | 4 | 8 | 4 | 8 | 0.25 | 0.25 | 0.06 | 0.06 | 128 | 32 | 8 | 16 | 6 | 4 | >256 | 64 | MIC in 1:1 combination with rifampicin, E. coli 059 (E. coli [10]; E. coli 059): ≤0.5 microgram/mL; MIC in 1:1 combination with rifampicin, E. coli 060 (E. coli [10]; E. coli 060): ≤0.5 microgram/mL; MIC in 1:1 combination with rifampicin, E. coli ATCC 25922 (E. coli [10]; E. coli ATCC 25922): ≤0.5 microgram/mL; Mean log10 CFU reduction vs. control ([11]; 0.215 mg/kg/dose free base SC at 2, 6 and 10 h post-infection): 0.69 log10 CFU; Mean log10 CFU reduction vs. control ([11]; 0.86 mg/kg/dose free base SC at 2, 6 and 10 h post-infection): 4.74 log10 CFU; Mean log10 CFU reduction vs. control ([11]; 2.6 mg/kg/dose free base SC at 2, 6 and 10 h post-infection): 5.05 log10 CFU; Mean log10 CFU reduction vs. control ([11]; 8.6 mg/kg/dose free base SC at 2, 6 and 10 h post-infection): 5.79 log10 CFU; Mean log10 CFU reduction vs. control ([11]; 17.2 mg/kg/dose free base SC at 2, 6 and 10 h post-infection): 5.69 log10 CFU; MIC in 1:1 combination with rifampicin, P. aeruginosa 063 (P. aeruginosa [12]; P. aeruginosa 063): 32 microgram/mL; MIC in 1:1 combination with rifampicin, P. aeruginosa 068 (P. aeruginosa [12]; P. aeruginosa 068): 1 microgram/mL; MIC K. pneumoniae 063 [8]: 16 micrograms/mL; MIC K. pneumoniae 064 [8]: 4 micrograms/mL; MIC K. pneumoniae 655 [8]: 16 micrograms/mL; MIC in 1:1 combination with rifampicin, A. baumannii 053 (A. baumannii [13]): ≤0.5 microgram/mL; Mean log10 CFU reduction vs. control [9, 15]: 5.29 log10 CFU; MIC in 1:1 combination with rifampicin, K. pneumoniae 062 (K. pneumoniae [14]; K. pneumoniae 062): 1 microgram/mL; MIC in 1:1 combination with rifampicin, K. pneumoniae CCUG 59348 (K. pneumoniae [14]; K. pneumoniae CCUG 59348): ≤0.5 microgram/mL
